In patent US8722850B2, “Self-assembling peptides and their use in the formation of hydrogels” (Universita' Degli Studi di Milano Bicocca, priority 2010, dated 2014):
“Also recorded” adds a separate entry of the source. Where a SMILES comes first, the peptide text is derived from it. The star is where a group is joined. Biotin = O=C1N[C@H]2[C@H](CS[C@H]2CCCCC(=O)*)N1

Columns and labels:
[1] = system: human Neural Stem Cells (hNSCs); assay: Live/Dead cell imaging (calcein AM / ethidium homodimer); assay type: cell-based; conditions: cells cultured for 10 days
Description: In vitro tests were performed following a previously adopted methodology (5). Briefly, cells (at a concentration of 6×10^4 cells/cm^2) were seeded on the top-surface of each assembled scaffold previously assembled into 96 multiwells. Initially, cells were cultured with basal medium supplemented with βFGF (10 ng/ml), added to enhance neuronal progeny differentiation. At 3 days in vitro (DIV), βFGF medium was replaced with Leukemia Inhibitory Factor (LIF, Chemicon) (20 ng/ml) and Brain Derived Neurotrophic Factor (BDNF, Peprotech) (20 ng/ml). Fresh medium was added every three days. Positive and negative controls consisted of CULTREX-BME® substrate (R&D systems) (1:100 dilution in basal medium) and untreated bottom well surfaces respectively.
Live/Dead cell imaging (MolecularProbes) was obtained by incubating cells cultured for 10 days with a staining solution containing 2.0 μM calcein AM and 4.0 μM ethidium homodimer in PBS at 37° C. for 60 min and visualized by inverted fluorescence microscope (Zeiss).

spinal cord of rats [2] = assay: In vivo nervous regeneration test, spinal cord injections, 1 month; conditions: one month after injections
Description: (§1) To test if the SAPs according to the present invention show any toxicity when used in vivo we assessed the tissue reaction to multiple injections of B24 into the spinal cord of rats. All procedures involving animals were performed according to EC guidelines (EC Council Directive 86/609, 1987), to the Italian legislation on animal is experimentation (Decreto L. vo 116/92) and to protocols approved by the Animal Care and Use Committee of the University of Milan-Bicocca (IACUC 37/07).
(§2) Female Sprague-Dawley rats weighting 200-250 gr (Charles River Laboratories) were divided into two groups: 1) animals receiving injections of saline solution (control group, n=3) and 2) animals treated with B24 (n=3). In the case of long term observations (1 month) similar injections of B24 were used (n=2). Rats were anesthetized with an intraperitoneal injection of ketamine (80 mg/kg) and xylazine (10 mg/kg). The spinal cord was exposed at the T9-T10 level, and, after laminectomy, animals were injected with B24 (1% aqueous solution) or saline solution using a Hamilton syringe held via a micromanipulator. The solutions were delivered at distances of 500 μm, and two injections of 0.5 μl each were made at each interval, for a total dose of 3 μl. After injection, the muscles were sutured and the skin was closed with wound clips. […]

spinal cord of rats [3] = assay: In vivo toxicity / biocompatibility, injections into the spinal cord, 3 days; conditions: three days after injection, versus saline
Description: as §1
as §2, with “clips. Rats were treated daily with analgesic (carprofen, 5 mg/kg) and antibiotic (enrofloxacin, 5 mg/kg). 3 days after surgery (for toxicity tests) or 1 month after surgery (nervous regeneration tests) animals were sacrificed by transcardial perfusion with 4% paraformaldehyde. Spinal cords were removed, embedded in OCT, frozen and sliced into 16 μm thick longitudinal sections. For immunofluorescence analysis slices were permeabilized and blocked with PBS/0.3% TritonX-100/10% Normal Goat Serum (NGS) for 1 hour at room temperature.” for “clips.”

C[C@@H](O)[C@H](NC(=O)[C@H](CCCNC(=N)N)NC(=O)[C@@H](NC(=O)[C@H](CO)NC(=O)[C@H](CO)NC(=O)[C@H](Cc1ccccc1)NC(=O)[C@@H]1CCCN1C(=O)CNC(=O)CNC(=O)CNC(=O)CCCC[C@@H]1SC[C@@H]2NC(=O)N[C@@H]21)[C@@H](C)O)C(N)=O [B22] (Biotin-GGGPFSSTRT-NH2)
live/dead cell imaging [1]: clamped in poorly branched aggregates; also recorded: bipolar cells

C[C@H](NC(=O)CNC(=O)CNC(=O)CNC(=O)CCCC[C@@H]1SC[C@@H]2NC(=O)N[C@@H]21)C(=O)N[C@@H](Cc1ccccc1)C(=O)N[C@@H](C)C(=O)N[C@@H](CO)C(=O)N[C@H](C(=O)N[C@@H](CCCCN)C(=O)N[C@H](C(N)=O)[C@@H](C)O)[C@@H](C)O [peptide B24] (Biotin-GGGAFASTKT-NH2)
chronic inflammation in the spinal cord (spinal cord of rats [2]): did not exert any chronic inflammation | apoptotic cells (Tunel) (spinal cord of rats [3]): negligible number | infiltrated macrophages (CD68) (spinal cord of rats [3]): negligible number | neurofilament H dephosphorilated (degenerating) nervous fibers (spinal cord of rats [3]): equally present in saline-injected and in B24-treated animals | live/dead cell imaging [1]: distributed throughout the gel top surface; also recorded: a layer of widely branched cells
